The target in assay [1] is T1, GABABR1a-SD1 (SD1-FITC-9mer complex) (Homo sapiens, UniProt Q9UBS5).
T1 construct: The synthetic gene encoding for residues 26-96 of the Sushi1 protein was cloned into a pFloat-SUMO vector; His-SUMO (with 3C protease site) (N, cleaved yes); made in house; host or cells: E. coli BL21(DE3)
Nature of the assay: Fluorescence polarization (FP) competition assay with FITC-9mer. The format is binding. The settings on record: peptide at 50 μM; inhibition of FITC-9mer binding to SD1. As for the experimental part: Intrigued by the surprising results of the 5-mer, it was decided to set up a medium- to high-throughput screen to optimize the 5-mer sequence. Several assays were tested to find a reproducible, robust and cost-effective assay that is also suitable for high-throughput screening. A fluorescence polarization (FP) assay was selected. FP measurements are well-known for receptor binding assays. The assay is based on the rotational movement of fluorescently labelled molecules in solution. […] The FP assay was optimized using the FITC labelled sAPP 9-mer (FIG. 1).
To screen for GABABR1a binders using unlabelled test compounds, the assay was turned into a competition assay using FITC-9mer. […] To validate this inhibitor assay, the IC50 values were determined of the 17-mer, 9-mer, 5-mer as well as those from 3 negative controls: 10-mer, scrambled 17-mer and a scrambled 9-mer (FIG. 2).
To determine if the peptides of this application were able to disrupt the SD1-9-mer complex, each peptide (in single point or dose-response curve) tested was incubate with SD1 protein for 1 h at RT. After this initially incubation, FITC-9mer was added to the previous mix and incubated during 2 h at RT. The signal intensity was measure in an appropriate plate reader using the following settings: Number of flashes per well: 200; Excitation: F482-16; Dichroic filter: FLP 504; Emission A F530-40; Gain A: 738, Gain B: 736. The assay was conducted in a 384-well plate.

Assay [2] deals with T2, HEK293 cells expressing the ectodomain of GABABR1a comprising SD1 (Homo sapiens, UniProt Q9UBS5).
T2 construct: HEK293 were transfected with plasmids encoding the ectodomain of GABABR1a (as in Rice et al., 2019); expressed in transfected cells; host or cells: HEK293
T2 sequence (Q9UBS5 20-591 limits assumed): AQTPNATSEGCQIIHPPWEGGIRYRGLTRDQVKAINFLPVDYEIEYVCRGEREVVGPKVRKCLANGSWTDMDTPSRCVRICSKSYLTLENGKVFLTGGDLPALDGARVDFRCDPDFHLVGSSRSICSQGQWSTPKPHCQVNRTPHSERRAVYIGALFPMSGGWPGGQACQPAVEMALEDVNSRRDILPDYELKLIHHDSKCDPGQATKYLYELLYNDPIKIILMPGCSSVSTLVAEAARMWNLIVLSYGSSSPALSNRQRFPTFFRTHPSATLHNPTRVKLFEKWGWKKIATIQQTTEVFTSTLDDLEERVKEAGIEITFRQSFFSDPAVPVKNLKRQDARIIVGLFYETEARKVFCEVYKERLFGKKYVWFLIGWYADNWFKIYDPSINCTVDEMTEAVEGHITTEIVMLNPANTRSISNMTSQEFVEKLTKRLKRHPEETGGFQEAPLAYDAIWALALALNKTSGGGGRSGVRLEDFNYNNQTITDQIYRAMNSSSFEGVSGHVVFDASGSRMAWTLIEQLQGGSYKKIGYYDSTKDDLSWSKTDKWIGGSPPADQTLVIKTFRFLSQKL
In words: Flow-cytometry cell-based binding assay, competition with biotinylated 9-mer. The settings on record: peptide at 100 μM, inhibition of biotin-9mer (10 μM) binding. As to the method: HEK cells expressing GABABR1a-SD1 were incubated with peptides of the application and the binding of 9-mer in the presence of the peptides was measured. The 9-mer peptide is biotinylated and detected with a commercial antibody.
Next, the top ranking compounds were tested in a cell-based binding assay. HEK293 cells were transformed to express the ectodomain of GABABR1a comprising SD1. In this cell-based assay, SD1 is expressed on the GABABR1a ectodomain and can adopt a more physiological conformation, compared to the purified SD1 protein used in the primary assay (FP assay).
HEK293 were transfected with plasmids encoding the ectodomain of GABABR1a (as in Rice et al., 2019), carrying a His-tag at the N-terminal. After 24 h of expression, cells were harvested and adjusted to a concentration of 1×10^6 cells/mL in ice-cold 2% FBS/PBS. Incubation with each peptide (in dose-response curve) was carried out at 4° C. for 1 h, followed by incubation with the biotion-9mer (10 μM) peptide during 30 min. Detection antibodies recognizing either His protein or biotin were added for a period of 30 min. The assay plate containing the cells was loaded into the Attune NxT Cytometer, parameters were adjusted accordingly with the cell type and signal intensity. In each experiment, positive and negative control were added to the plate.

For assay [3], the target named is T3, sushi domain 1 (SD1) of GABABR1a (Homo sapiens, UniProt Q9UBS5).
T3 construct: The synthetic gene encoding for residues 26-96 of the Sushi1 protein was cloned into a pFloat-SUMO vector; His-SUMO (with 3C protease site) (N, cleaved yes); made in house; host or cells: E. coli BL21(DE3)
Nature of the assay: Isothermal titration calorimetry (ITC) direct binding assay. To be noted: for ITC Kd: peptide titrated into Sushi-1 protein in PBS. From the text:
In contrast to the FP assay, the isothermal titration calorimetry (ITC) assay is a direct binding assay.
For biophysical and structural biology purposes the Sushi1 protein was expressed in a bacterial expression system. The synthetic gene encoding for residues 26-96 of the Sushi1 protein was cloned into a pFloat-SUMO vector, generating a His-tagged SUMO-Sushi1 fusion protein. The construct also contained a 3C protease cleavage site to remove the His-SUMO-tag. The pFloat-SUMO-Sushi1 plasmid was transformed in BL21(DE3) cells and plated on kanamycin ([…]) containing LB agar plates. A small LB culture, supplemented with […] kanamycin, was inoculated with a single colony of BL21(DE3)(pFloat-SUMO-Sushi1) and grown overnight at 37° C. 1 liter LB cultures were subsequently inoculated with 20 ml of this preculture and grown at 37° C. until OD600 reached 0.8. At this point protein expression was induced using 0.5 mM isopropyl β-D-1-thiogalactopyranoside (IPTG). Cells were incubated further overnight at 20° C. and subsequently harvested by centrifugation (Beckman rotor 8.1000, 5000 rpm, 15 min, 4C). The pellet was resuspended in 20 mM Tris pH 7.5, 500 mM NaCl, 10 mM imidazole, 5 mM β-mercaptoethanol, 0.1 mg/mL 4-(2-aminoethyl) benzenesulfonyl fluoride hydrochloride (AEBSF), 1 μg/mL leupeptine, 50 μg/mL DNasel and 20 mM MgCl2. The cells were lysed using a French press (Constant Systems) at 20 kpsi and the cell debris was removed by centrifugation. The cell lysate was loaded on a Ni-sepharose FF HiLoad column (GE Healthcare), equilibrated in 20 mM Tris pH 7.5, 500 mM NaCl, 10 mM imidazole, 5 mM […]. The bound proteins were eluted using a linear gradient to 500 mM imidazole. Fractions containing the His-SUMO-Sushi1 protein were pooled and dialysed overnight to 20 mM Tris pH 7.5, 150 mM NaCl, while cleaving with 3C protease. The cleaved sample was loaded again on a Ni-sepharose FF HiLoad column, equilibrated in the same buffer. The FT, containing the Sushi1 protein, was concentrated and applied to a BioRad S100 16/60 size exclusion column, equilibrated in 50 mM KPi buffer pH 6.0, 50 mM NaCl.
The Sushi-1 protein was dialysed overnight to PBS buffer and diluted to 30 μM in the same buffer. The peptides were resuspended in PBS at a stock concentration of 3 mM and diluted further in the same buffer to 300 μM. ITC experiments were performed on a Microcal ITC200 device. Titrations comprised 26×1.5 μL injections of peptide into protein, with 90 s intervals. An initial injection of ligand (0.5 μL) was made and discarded during data analysis. The data were fitted to a single binding site model using the Microcal LLC ITC200. Original software provided by the manufacturer.

Assay [4] deals with T4, Sushi domain 1 of the human GABA B1a receptor (human, UniProt Q9UBS5 26-96).
T4 construct: Purified recombinant protein from E. coli; also called SD1; GABABR1a-SD1
T4 sequence (Q9UBS5 26-96 limits assumed): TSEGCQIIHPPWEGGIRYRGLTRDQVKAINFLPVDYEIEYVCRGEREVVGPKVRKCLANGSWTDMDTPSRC
In words: ITC. As for the experimental part: In the mutagenesis experiment of Example 1 we also included an 8-mer lacking position 9.
The Sushi-1 protein was dialysed overnight to PBS buffer and diluted to 30 μM in the same buffer. The peptides were resuspended in PBS at a stock concentration of 3 mM and diluted further in the same buffer to 300 μM. ITC experiments were performed on a Microcal ITC200 device. Titrations comprised 26×1.5 μL injections of peptide into protein, with 90 s intervals. An initial injection of ligand (0.5 μL) was made and discarded during data analysis. The data were fitted to a single binding site model using the Microcal LLC ITC₂₀₀. Original software provided by the manufacturer.

*1 amine or outer side, *2 acyl side, *3 side chain or, on linkers, in order; H or OH if unused. Where a SMILES comes first, the peptide text is derived from it. Where no end group is shown, it is not given here. [ ]: non-standard residue; d: D form. X2 = O=C([C@H](CC1CCC(F)(F)CC1)N[*:1])[*:2]; 2Nal = N[C@@H](Cc1ccc2ccccc2c1)C(=O)O; hCha = N[C@@H](CCC1CCCCC1)C(=O)O; Cha = N[C@@H](CC1CCCCC1)C(=O)O; F72 = not defined here

T1 sequence (Q9UBS5 26-96, one chain of several): as the sequence (Q9UBS5 26-96 limits assumed) above

`CC[C@H](C)[C@H](NC(=O)[C@H](N)CC(=O)O)C(=O)N[C@@H](Cc1c[nH]c2cc(Cl)ccc12)C(=O)N[C@@H](Cc1c[nH]c2ccccc12)C(=O)N[C@@H](CO)C(=O)O` [VIB-0068894]: the inhibition at 50 µM in assay [1] was determined as 96.8%. Moreover, in assay [2], the inhibition at 100 µM is 84.2%. Further, in assay [3], the “ITC Kd” value is reported as “bound as good as the 17-mer”. In turn, `CC[C@H](C)[C@H](NC(=O)[C@H](N)CC(=O)O)C(=O)N[C@@H](Cc1ccc2ccccc2c1)C(=O)N[C@@H](Cc1c[nH]c2ccccc12)C(=O)N[C@@H](CO)C(=O)O` [VIB-0068895] (H-[dD]I[2Nal]WS-OH; N-terminus and C-terminus assumed) registered an inhibition at 50 µM in assay [1] of 96.3%. This molecule gave an inhibition at 100 µM in assay [2] of 77%. On the same counts, the results for `CC[C@H](C)[C@H](NC(=O)[C@H](N)CC(=O)O)C(=O)N[C@@H](CCC1CCCCC1)C(=O)N[C@@H](Cc1c[nH]c2ccccc12)C(=O)N[C@@H](CO)C(=O)O` [VIB-0068903] (H-[dD]I[hCha]WS-OH; N-terminus and C-terminus assumed) are 93.9% and 76%. On the same counts, the results for `CC[C@H](C)[C@H](NC(=O)[C@H](N)CC(=O)O)C(=O)N[C@@H](CC1CCCCC1)C(=O)N[C@@H](Cc1c[nH]c2ccccc12)C(=O)N[C@@H](CO)C(=O)O` [VIB-0068905] (H-[dD]I[Cha]WS-OH; N-terminus and C-terminus assumed) are 94.8% and 68.3%. On the same counts, the results for `CC[C@H](C)[C@H](NC(=O)[C@H](N)CC(=O)O)C(=O)N[C@@H](CC1CCC(F)(F)CC1)C(=O)N[C@@H](Cc1c[nH]c2ccccc12)C(=O)N[C@@H](CO)C(=O)O` [VIB-0068907] (H-[dD]I[X2]WS-OH; N-terminus and C-terminus assumed) are 86.2% and 47.2%.

`CC[C@H](C)[C@H](NC(=O)[C@H](N)CC(=O)O)C(=O)N[C@@H](CCc1ccccc1)C(=O)N[C@@H](Cc1c[nH]c2ccccc12)C(=O)N[C@@H](CO)C(=O)O` [VIB-0068910] displayed an inhibition at 50 µM in assay [1] of 88.6%. Besides, at 100 µM the inhibition in assay [2] was 54.2%. As to `CC(C)[C@H](NC(=O)[C@H](CC(=O)O)NC(=O)[C@@H](CO)NC(=O)[C@@H](CC(=O)O)NC(=O)[C@H](N)CC(=O)O)C(=O)N[C@@H](Cc1c[nH]c2ccccc12)C(=O)N[C@@H](Cc1c[nH]c2ccccc12)C(=O)NCC(=O)NCC(=O)O` [VIB_P07, {D-ASP}{D-ASP}{D-SER}DVWWGG] (H-[dD][dD][dS]DVWWGG-OH; N-terminus and C-terminus assumed), the Kd in assay [3] came out at 11 µM. In other words, the double-digit micromolar range. The same measure, in the same setting: next, `CC(C)[C@H](NC(=O)[C@H](CC(=O)O)NC(=O)[C@H](CO)NC(=O)[C@@H](CC(=O)O)NC(=O)[C@@H](N)CC(=O)O)C(=O)N[C@@H](Cc1c[nH]c2ccccc12)C(=O)N[C@@H](Cc1c[nH]c2ccccc12)C(=O)NCC(=O)NCC(=O)O` [VIB_P09, D{D-ASP}SDVWWGG] (H-D[dD]SDVWWGG-OH; N-terminus and C-terminus assumed): 11 µM; DDSDVWWG [VIB_P20, DDSDVWWG]: 1.95 µM. Regarding “VIB-0068911: non-natural 5-mer d-I-F72-W-S; d = D-aspartate, F72 = (isoethylmethyl)benzene ([dD]I[F72]WS; not fully specified; printed as d-I-F72-W-S; reading uncertain)”, the “ITC Kd” value in assay [3] is reported as “bound as good as the 17-mer”. ADSAVWWGG [VIB_P05]: the binding result in assay [4] was “binds”. On to DDSDVAWGG [VIB_P17], for which the binding result in assay [4] was “binds”. On the same count and under the same terms, as for DDSDVWAGG [VIB_P18], the entry is “binds”; as for DDSDAWWGG [VIB_P16], “binds”.

Source of the values: US20240376149A1, “Novel Modulators of GABABR1a” (VIB VZW, priority 2021, published 2024).
